What follows are compounds tested on SK-BR-3 tumor cells (assay: In vitro proliferation inhibitory activity of compounds of Formula (GH) on SK-BR-3 tumor cells (CCK8)). Conditions: Homo sapiens, SK-BR-3, 72 h, 3 days of culture, read-out: IC50 for inhibiting proliferation of SK-BR-3 cells in vitro.
Type: cell-based
Description: The objective of this experiment is to detect the in vitro killing activity of the compound of Formula (GH) of the present disclosure on SK-BR-3 tumor cells (human breast cancer cells, Wuhan Procell, Catalog No. CL-0211). The cells were treated with different concentrations of the compound in vitro. After 3 days of culture, the number of viable cells was detected using CCK8 (Cell Counting Kit-8, Catalog No. TS547) reagents, and the in vitro activity of the test compound was evaluated according to the IC50 value.
Taking the test method of in vitro killing activity on SK-BR-3 cells as an example, the following test was performed. […] After the cells were completely digested, 10 mL of cell culture medium containing 2% FBS was added to wash out the digested cells, centrifugation was performed at 300 g for 5 min, the supernatant was discarded, and then 10 to 20 mL of cell culture medium containing 2% FBS was added to resuspend the cells to prepare a single cell suspension. • (3) Cell plating: The SK-BR-3 single cell suspension was mixed well, the viable cell density was adjusted to 6×10^4 cells/mL with the cell culture medium containing 2% FBS, the cell suspension after density adjustment was mixed well, and added to a 96-well cell culture plate at 100 μL/well. Only 200 μL of PBS was added to the peripheral wells of the 96-well plate. The culture plate was incubated in an incubator for 24 hours (37° C., 5% CO2). • (4) Compound preparation: The compound was dissolved in DMSO (dimethyl sulfoxide, SIGMA) to prepare a 2 mM stock solution.
The starting concentrations of small molecule compounds and Dxd were both 600 nM, and the preparation method was as follows.
Then, 315 μL of different samples to be tested were added to the first column of a 96-well U-bottomed drug distribution plate, and the sample concentration was 1200 nM; 210 μL of the cell culture medium containing 2% FBS was added to each well of the second to tenth columns. 105 μL of the sample was taken from the first column and added to the 210 μL cell culture medium in the second column and mixed well, and 105 μL was taken and added to the third column, and so on to the tenth column. • (5) Sample loading operation: 100 μL of the sample to be tested of different concentrations was added to the culture plate, and two replicate wells were set for each sample. The culture plate was incubated in an incubator for 3 days (37° C., 5% CO2). • (6) Color development operation: The 96-well cell culture plate was taken out, the cell culture supernatant was removed by tapping, 100 μL of the RPMI 1640 basal medium (without FBS) containing 10% CCK8 was added, and then it was incubated in an incubator for about 1.5 hours (37° C., 5% CO2). • (7) Plate reading operation: The 96-well cell culture plate was taken out, placed in an ELISA reader (MD SpectraMax i3X), and A450 was determined by the ELISA reader. • (8) Data analysis: Microsoft Excel and Graphpad Prism 5 were used to process and analyze the data.
Compound `Cc1c(F)cc2nc3c(c4c2c1CC[C@@H]4NC(=O)[C@@H](O)C1CC1)Cn1c-3cc2c(c1=O)COC(=O)[C@]2(O)CC1CC1` [Compound 4-A, (S)-2-Cyclopropyl-N-((1S,9S)-9-(cyclopropylmethyl)-5-fluoro-9-hydroxy-4-methyl-10,13-dioxo-2,3,9,10,13,15-hexahydro-1H,12H-benzo[de]pyrano[3′,4′:6,7]indolizino[1,2-b]quinolin-1-yl)-2-hydroxyacetamide] has an IC50 of 6.42 nM.
`CC[C@@]1(O)C(=O)OCc2c1cc1n(c2=O)Cc2c-1nc1cc(F)c3c(c1c2CNC(=O)[C@@H](C)O)CCC3` [Compound 26, (R)-N-(((S)-8-Ethyl-4-fluoro-8-hydroxy-9,12-dioxo-2,3,8,9,12,14-hexahydro-1H,11H-cyclopenta[f]pyrano[3′,4′:6,7]indolizino[1,2-b]quinolin-15-yl)methyl)-2-hydroxypropanamide] was tested, and the IC50 was 8.39 nM.
Compound `Cc1c(F)cc2nc3c(c4c2c1CC[C@@H]4NC(=O)[C@@H](C)O)Cn1c-3cc2c(c1=O)COC(=O)[C@]2(O)CC1CC1` [Compound 3-A, (R)-N-((1S,9S)-9-(cyclopropylmethyl)-5-fluoro-9-hydroxy-4-methyl-10,13-dioxo-2,3,9,10,13,15-hexahydro-1H,12H-benzo[de]pyrano[3′,4′:6,7]indolizino[1,2-b]quinolin-1-yl)-2-hydroxypropanamide] has an IC50 of 5.91 nM.
`Cc1c(F)cc2nc3c(c4c2c1CC[C@H]4NC(=O)[C@H](C)O)Cn1c-3cc2c(c1=O)COC(=O)[C@]2(O)CC1CC1` [Compound 2-B, (S)-N-((1R,9S)-9-(Cyclopropylmethyl)-5-fluoro-9-hydroxy-4-methyl-10,13-dioxo-2,3,9,10,13,15-hexahydro-1H,12H-benzo[de]pyrano[3′,4′:6,7]indolizino[1,2-b]quinolin-1-yl)-2-hydroxypropanamide] showed an IC50 of 12 nM.
In the case of `Cc1c(F)cc2nc3c(c4c2c1CC[C@H]4NC(=O)[C@@H](O)C1CC1)Cn1c-3cc2c(c1=O)COC(=O)[C@]2(O)CC1CC1` [Compound 4-B, (S)-2-cyclopropyl-N-((1R,9S)-9-(cyclopropylmethyl)-5-fluoro-9-hydroxy-4-methyl-10,13-dioxo-2,3,9,10,13,15-hexahydro-1H,12H-benzo[de]pyrano[3′,4′:6,7]indolizino[1,2-b]quinolin-1-yl)-2-hydroxyacetamide], the IC50 is reported as 5.01 nM.
Compound `Cc1c(F)cc2nc3c(c4c2c1CC[C@H]4NC(=O)[C@@H](C)O)Cn1c-3cc2c(c1=O)COC(=O)[C@]2(O)CC1CC1` [Compound 3-B, (R)-N-((1R,9S)-9-(cyclopropylmethyl)-5-fluoro-9-hydroxy-4-methyl-10,13-dioxo-2,3,9,10,13,15-hexahydro-1H,12H-benzo[de]pyrano[3′,4′:6,7]indolizino[1,2-b]quinolin-1-yl)-2-hydroxypropanamide] has an IC50 of 2.36 nM.
`Cc1c(F)cc2nc3c(c4c2c1CC[C@@H]4NC(=O)[C@H](O)C1CC1)Cn1c-3cc2c(c1=O)COC(=O)[C@]2(O)CC1CC1` [Compound 5-A, (R)-2-Cyclopropyl-N-((1S,9S)-9-(cyclopropylmethyl)-5-fluoro-9-hydroxy-4-methyl-10,13-dioxo-2,3,9,10,13,15-hexahydro-1H,12H-benzo[de]pyrano[3′,4′:6,7]indolizino[1,2-b]quinolin-1-yl)-2-hydroxyacetamide] showed an IC50 of 9.27 nM.
In the case of `CC[C@@]1(O)C(=O)OCc2c1cc1n(c2=O)Cc2c-1nc1cc(F)c3c(c1c2CNC(=O)[C@H](O)C1CC1)CCC3` [Compound 28, (R)-2-Cyclopropyl-N-(((S)-8-ethyl-4-fluoro-8-hydroxy-9,12-dioxo-2,3,8,9,12,14-hexahydro-1H,11H-cyclopenta[f]pyrano[3′,4′:6,7]indolizino[1,2-b]quinolin-15-yl)methyl)-2-hydroxyacetamide], the IC50 is reported as 15.1 nM.
`Cc1c(F)cc2nc3c(c4c2c1CC[C@H]4NC(=O)CO)Cn1c-3cc2c(c1=O)COC(=O)[C@]2(O)CC1CC1` [Compound 1-A, N-((1R,9S)-9-(cyclopropylmethyl)-5-fluoro-9-hydroxy-4-methyl-10,13-dioxo-2,3,9,10,13,15-hexahydro-1H,12H-benzo[de]pyrano[3′,4′:6,7]indolizino[1,2-b]quinolin-1-yl)-2-hydroxyacetamide] was tested, and the IC50 was 0.93 nM.
With `CC[C@@]1(O)C(=O)OCc2c1cc1n(c2=O)Cc2c-1nc1cc(F)c3c(c1c2CNC(=O)CO)CCC3` [Compound 24, (S)-N-((8-ethyl-4-fluoro-8-hydroxy-9,12-dioxo-2,3,8,9,12,14-hexahydro-1H,11H-cyclopenta[f]pyrano[3′,4′:6,7]indolizino[1,2-b]quinolin-15-yl)methyl)-2-hydroxyacetamide] the IC50 was 5.79 nM.
In the case of `CC[C@@]1(O)C(=O)OCc2c1cc1n(c2=O)Cc2c-1nc1cc(F)c3c(c1c2CNC(=O)[C@@H](O)C1CC1)CCC3` [Compound 27, (S)-2-Cyclopropyl-N-(((S)-8-ethyl-4-fluoro-8-hydroxy-9,12-dioxo-2,3,8,9,12,14-hexahydro-1H,11H-cyclopenta[f]pyrano[3′,4′:6,7]indolizino[1,2-b]quinolin-15-yl)methyl)-2-hydroxyacetamide], the IC50 is reported as 13.9 nM.

The compounds below were run on NCI-N87 tumor cells (assay: In vitro proliferation inhibitory activity of compounds of Formula (GH) on NCI-N87 tumor cells (CCK8)). Conditions: 6 days of culture, CCK8; read-out: IC50 for inhibiting proliferation of NCI-N87 cells in vitro.
Type: cell-based, human
Description: The objective of this experiment is to detect the in vitro killing activity of the compound of Formula (GH) disclosed in the present invention on NCI-N87 tumor cells (human gastric cancer cells, Cell Resource Center, Institute of Basic Medicine, Chinese Academy of Medical Sciences, Catalog No. 3111C0001CCC000481). The cells were treated with different concentrations of the compound in vitro, and after 6 days of culture, the number of viable cells was detected using CCK8 (Cell Counting Kit-8, Catalog No. TS547) reagents, and the in vitro activity of the test compound was evaluated according to the IC50 value.
• (1) Cell culture: NCI-N87 cells were cultured in the RPMI 1640 medium containing 2% FBS (Shanghai BasalMedia Technologies Co., Ltd., Catalog No. L210KJ). • (2) Cell preparation: NCI-N87 cells in the logarithmic growth phase were taken, washed once with PBS (phosphate buffered saline, Shanghai BasalMedia Technologies Co., Ltd., Catalog No. E211004), added with 1 mL of trypsin (0.25% Trypsin-EDTA (1×), Shanghai BasalMedia Technologies Co., Ltd., Catalog No. A121002) to allow digestion for 2 to 3 minutes. After the cells were completely digested, 10 mL of the cell culture medium was added to wash off and obtain the digested cells, centrifugation was performed at 300 times gravitational acceleration (g) for 5 min, the supernatant was discarded, then 10 mL of PBS was added to wash the cells once, centrifugation was performed at 300 times gravitational acceleration (g) for 5 minutes, the supernatant was discarded, and 10 mL of the cell culture medium containing 2% FBS was added to resuspend the cells to prepare a single cell suspension. • (3) Cell plating: The NCI-N87 single cell suspension was mixed, the density of live cells was adjusted to 3×10^4 cells/mL with 2% FBS cell culture medium, the cell suspension after density adjustment was mixed well, and added to a 96-well cell culture plate at 100 μL/well. Only 200 μL of PBS was added to each of the peripheral wells of the 96-well plate. The plate was incubated in an incubator for 24 hours (37° C., 5% CO2). • (4) Preparation of sample to be tested:
The sample to be tested was diluted to 3200 nM with cell culture medium containing 2% FBS, then 300 μL of the sample was added to the first well of a 96-well U-bottomed plate with a sample concentration of 3200 nM; and 210 μL of cell culture medium containing 2% FBS was added to each well of the second to tenth columns. 70 μL of the sample was taken from the first column and added to the 210 μL cell culture medium in the second column and mixed well, 70 μL was taken and added to the third column, and so on to the ninth column. • (5) Sample loading operation: 100 μL of the sample to be tested with different concentrations was added to the culture plate, two replicate wells were set for each sample. The culture plate was incubated in an incubator for 6 days (37° C., 5% CO2). • (6) Color development operation: The 96-well cell culture plate was taken out, the supernatant of the culture medium was removed by tapping, 100 μL of 10% CCK8 (prepared with RPMI 1640 basal culture medium, without FBS) solution was added to each well, and incubation was performed in an incubator for 2 hours. • (7) Plate reading operation: The 96-well cell culture plate was taken out, placed in an ELISA reader (SpectraMax i3X), and A450 was determined by the ELISA reader. • (8) Data analysis: Microsoft Excel and Graphpad Prism 5 were used to process and analyze the data.
For `CC[C@@]1(O)C(=O)OCc2c1cc1n(c2=O)Cc2c-1nc1cc(F)c(C)c3c1c2[C@@H](NC(=O)CO)CC3` [Dxd, reference compound], the IC50 was 10.2 nM.

Same assay, conditions: Homo sapiens, NCI-N87, […], read-out: IC50 for inhibiting proliferation of NCI-N87 cells in vitro
`Cc1c(F)cc2nc3c(c4c2c1CC[C@@H]4NC(=O)[C@@H](O)C1CC1)Cn1c-3cc2c(c1=O)COC(=O)[C@]2(O)CC1CC1` [Compound 4-A, (S)-2-Cyclopropyl-N-((1S,9S)-9-(cyclopropylmethyl)-5-fluoro-9-hydroxy-4-methyl-10,13-dioxo-2,3,9,10,13,15-hexahydro-1H,12H-benzo[de]pyrano[3′,4′:6,7]indolizino[1,2-b]quinolin-1-yl)-2-hydroxyacetamide] gave an IC50 of 2.4 nM.

Same assay, conditions: Homo sapiens, NCI-N87; 6 days of culture, CCK8; read-out: IC50 for inhibiting proliferation of NCI-N87 cells in vitro
In the case of `Cc1c(F)cc2nc3c(c4c2c1CC[C@@H]4NC(=O)[C@@H](C)O)Cn1c-3cc2c(c1=O)COC(=O)[C@]2(O)CC1CC1` [Compound 3-A, (R)-N-((1S,9S)-9-(cyclopropylmethyl)-5-fluoro-9-hydroxy-4-methyl-10,13-dioxo-2,3,9,10,13,15-hexahydro-1H,12H-benzo[de]pyrano[3′,4′:6,7]indolizino[1,2-b]quinolin-1-yl)-2-hydroxypropanamide], the IC50 is reported as 5.28 nM.
